Data on five compounds can be found in US12059422B2 (MEI Pharma, Inc., priority 2011, dated 2024).

For one experiment, the target named is PI3Kα (Homo sapiens, UniProt P42336). As to the kind of experiment: ELISA assay for PI3Kα: in-cell ELISA, phosphorylation of AKT (Thr308) in MDA-MB-453 cells. It counts as cell-based. The following applies: cellular, pAKT (Thr308), IGF-1 stimulation, read-out: IC50 p110α. On the technique in general: ELISA stands for enzyme-linked immunosorbent assay.
The target of another experiment is T1, PI3Kδ (Homo sapiens, UniProt O00329).
T1 construct: endogenous in cells; host or cells: Raji (ATCC #CCL-86)
In words: ELISA assay for PI3Kδ: sandwich ELISA, phosphorylation of AKT (Thr308) in Raji cells. The class given is cell-based. The following applies: for IC50: cellular, pAKT (Thr308), Raji cells, anti-Human IgM stimulation, read-out: IC50 p110δ; for α/δ ratio / β/δ ratio / γ/δ ratio: ratio of cellular IC50 values, Table 2. The procedure, abridged: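 Raji cells, serum-starved 2 hrs, treated with compound (10 concentrations) for 2 hrs at 37° C, then stimulated 30 min with anti-human IgM. Lysates analysed by sandwich ELISA for pAKT Thr308 and total AKT with luminescent read-out. IC50 from curve fitting.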

The target of the next experiment is mTOR (Homo sapiens, UniProt P42345). In words: mTOR inhibition (Table 1). It counts as biochemical. The following applies: Table 1, no method described.

Structures are written as SMILES.

T1 sequence (O00329 whole entry): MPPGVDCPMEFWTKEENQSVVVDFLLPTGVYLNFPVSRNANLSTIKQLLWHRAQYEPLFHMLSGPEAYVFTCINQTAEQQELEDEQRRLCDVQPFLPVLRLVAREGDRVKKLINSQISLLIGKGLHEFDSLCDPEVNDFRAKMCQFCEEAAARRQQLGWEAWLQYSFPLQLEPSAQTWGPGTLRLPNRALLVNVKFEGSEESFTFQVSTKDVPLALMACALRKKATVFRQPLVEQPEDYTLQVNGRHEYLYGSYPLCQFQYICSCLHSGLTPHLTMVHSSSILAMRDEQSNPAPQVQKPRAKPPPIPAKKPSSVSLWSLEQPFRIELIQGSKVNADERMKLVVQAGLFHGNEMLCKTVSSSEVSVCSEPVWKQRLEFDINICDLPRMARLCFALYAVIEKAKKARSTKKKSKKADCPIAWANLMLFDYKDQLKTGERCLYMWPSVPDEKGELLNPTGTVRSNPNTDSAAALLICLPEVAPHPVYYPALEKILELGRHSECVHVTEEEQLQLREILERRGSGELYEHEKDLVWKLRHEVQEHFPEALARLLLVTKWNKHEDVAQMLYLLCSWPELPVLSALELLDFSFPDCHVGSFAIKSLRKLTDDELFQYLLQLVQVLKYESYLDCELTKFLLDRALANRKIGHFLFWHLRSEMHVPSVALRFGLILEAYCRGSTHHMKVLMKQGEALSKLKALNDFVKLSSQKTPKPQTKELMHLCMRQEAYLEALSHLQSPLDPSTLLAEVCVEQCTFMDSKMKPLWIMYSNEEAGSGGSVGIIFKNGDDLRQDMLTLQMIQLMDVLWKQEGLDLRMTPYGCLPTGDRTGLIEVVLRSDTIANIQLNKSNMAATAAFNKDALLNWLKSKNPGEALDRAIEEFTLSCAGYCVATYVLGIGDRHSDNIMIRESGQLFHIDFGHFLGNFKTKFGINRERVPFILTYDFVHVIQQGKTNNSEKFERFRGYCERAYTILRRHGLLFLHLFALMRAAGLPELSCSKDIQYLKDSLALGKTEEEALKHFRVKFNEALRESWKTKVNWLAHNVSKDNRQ
T1 sequence (P27986 whole entry partner): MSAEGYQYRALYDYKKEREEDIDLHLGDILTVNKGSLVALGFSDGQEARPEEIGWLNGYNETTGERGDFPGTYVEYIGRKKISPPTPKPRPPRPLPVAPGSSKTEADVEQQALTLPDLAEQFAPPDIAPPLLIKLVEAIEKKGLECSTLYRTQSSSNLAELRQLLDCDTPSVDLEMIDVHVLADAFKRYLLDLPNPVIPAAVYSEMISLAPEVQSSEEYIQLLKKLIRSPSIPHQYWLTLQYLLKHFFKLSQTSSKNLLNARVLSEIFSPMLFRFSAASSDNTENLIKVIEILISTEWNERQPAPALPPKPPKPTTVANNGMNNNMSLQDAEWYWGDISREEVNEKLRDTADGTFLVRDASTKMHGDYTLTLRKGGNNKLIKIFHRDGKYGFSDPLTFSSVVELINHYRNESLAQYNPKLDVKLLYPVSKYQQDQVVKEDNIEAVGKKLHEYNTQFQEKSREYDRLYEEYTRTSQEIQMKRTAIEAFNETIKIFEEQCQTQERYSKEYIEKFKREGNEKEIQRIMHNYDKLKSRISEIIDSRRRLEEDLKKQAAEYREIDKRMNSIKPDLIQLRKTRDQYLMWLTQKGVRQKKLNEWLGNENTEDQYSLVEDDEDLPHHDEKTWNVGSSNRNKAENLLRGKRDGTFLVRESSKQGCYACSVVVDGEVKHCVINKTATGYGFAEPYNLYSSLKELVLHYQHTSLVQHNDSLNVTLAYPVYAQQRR
Chain of PI3Kα (P27986 2-724): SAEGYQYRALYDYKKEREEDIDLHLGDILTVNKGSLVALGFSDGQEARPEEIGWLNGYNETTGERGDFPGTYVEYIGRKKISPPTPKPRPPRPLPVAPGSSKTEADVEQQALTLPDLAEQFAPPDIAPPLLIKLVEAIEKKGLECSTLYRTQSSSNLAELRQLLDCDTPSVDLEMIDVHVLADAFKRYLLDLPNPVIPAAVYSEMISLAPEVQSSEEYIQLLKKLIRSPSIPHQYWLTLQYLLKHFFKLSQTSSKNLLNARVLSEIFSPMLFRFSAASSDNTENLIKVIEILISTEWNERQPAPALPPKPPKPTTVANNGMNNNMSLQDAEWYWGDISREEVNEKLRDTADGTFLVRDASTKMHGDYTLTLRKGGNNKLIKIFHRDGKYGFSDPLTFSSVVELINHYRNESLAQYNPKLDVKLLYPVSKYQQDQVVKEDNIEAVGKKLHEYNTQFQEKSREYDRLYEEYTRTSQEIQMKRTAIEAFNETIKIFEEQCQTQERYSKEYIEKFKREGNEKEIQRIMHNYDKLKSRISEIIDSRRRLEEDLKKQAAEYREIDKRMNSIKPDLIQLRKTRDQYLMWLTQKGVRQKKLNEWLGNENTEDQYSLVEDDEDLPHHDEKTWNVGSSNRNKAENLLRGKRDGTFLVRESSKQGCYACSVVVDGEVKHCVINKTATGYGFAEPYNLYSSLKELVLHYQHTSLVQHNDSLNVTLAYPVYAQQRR
Chain of PI3Kα (P42336 whole entry): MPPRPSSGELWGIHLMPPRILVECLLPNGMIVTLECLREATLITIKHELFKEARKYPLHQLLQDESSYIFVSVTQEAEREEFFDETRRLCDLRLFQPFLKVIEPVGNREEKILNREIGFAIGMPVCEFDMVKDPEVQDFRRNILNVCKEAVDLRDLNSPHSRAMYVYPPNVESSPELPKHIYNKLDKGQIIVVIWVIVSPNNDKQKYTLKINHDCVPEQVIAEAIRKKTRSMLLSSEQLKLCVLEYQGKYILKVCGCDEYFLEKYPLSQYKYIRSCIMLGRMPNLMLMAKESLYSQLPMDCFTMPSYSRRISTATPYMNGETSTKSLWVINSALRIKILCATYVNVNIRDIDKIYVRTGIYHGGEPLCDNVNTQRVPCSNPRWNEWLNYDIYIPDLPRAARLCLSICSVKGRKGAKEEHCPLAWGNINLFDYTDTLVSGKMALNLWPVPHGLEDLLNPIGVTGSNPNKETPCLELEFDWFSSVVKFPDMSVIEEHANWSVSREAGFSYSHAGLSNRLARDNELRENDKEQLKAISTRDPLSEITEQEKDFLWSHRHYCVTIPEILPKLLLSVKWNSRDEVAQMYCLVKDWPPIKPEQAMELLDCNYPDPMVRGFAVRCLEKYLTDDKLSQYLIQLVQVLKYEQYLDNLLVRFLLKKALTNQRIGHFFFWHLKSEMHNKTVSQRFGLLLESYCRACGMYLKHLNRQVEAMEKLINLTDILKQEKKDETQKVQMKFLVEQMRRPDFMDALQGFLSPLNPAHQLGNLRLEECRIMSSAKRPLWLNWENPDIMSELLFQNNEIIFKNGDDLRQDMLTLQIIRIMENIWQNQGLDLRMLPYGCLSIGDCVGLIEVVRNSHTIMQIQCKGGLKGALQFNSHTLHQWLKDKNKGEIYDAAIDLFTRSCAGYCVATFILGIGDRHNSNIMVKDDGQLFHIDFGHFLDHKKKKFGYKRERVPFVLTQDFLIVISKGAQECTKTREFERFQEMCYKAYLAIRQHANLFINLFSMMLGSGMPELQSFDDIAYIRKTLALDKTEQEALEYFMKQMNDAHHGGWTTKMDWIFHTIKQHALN

Turning to `COc1cccc(-c2ccccc2CC(C)(C)Nc2nc(N3CCOCC3)nc(-n3c(C(F)F)nc4ccccc43)n2)c1` [Compound A66, 4-(2-(difluoromethyl)-1H-benzo[d]imidazol-1-yl)-N-(1-(3′-methoxybiphenyl-2-yl)-2-methylpropan-2-yl)-6-morpholino-1,3,5-triazin-2-amine], at PI3Kα, the IC50 is greater than 500 nM. Further, at PI3Kδ, the IC50 was no more than 100 nM, the α/δ ratio result is listed as “A’”, the β/δ ratio result was “A’” and the γ/δ ratio entry is reported as “A’”. The compound also registered a 50% inhibitory concentration (IC50) against mTOR greater than 500 nM.

As to `Cc1ccccc1CC(C)(C)Nc1nc(N2CCOCC2)nc(-n2c(C(F)F)nc3ccccc32)n1` [Compound A18, 4-(2-(difluoromethyl)-1H-benzo[d]imidazol-1-yl)-N-(2-methyl-1-(o-tolyl)propan-2-yl)-6-morpholino-1,3,5-triazin-2-amine], the IC50 at PI3Kα is greater than 500 nM. Further, on PI3Kδ, the IC50 was no more than 100 nM, the α/δ ratio entry is on record as “A’”, the β/δ ratio result is recorded as “A’” and the γ/δ ratio entry was “A’”. On mTOR, this compound yielded an IC50 greater than 500 nM.

Take `CC(C)(Cc1ccccc1-c1cccnc1)Nc1nc(N2CCOCC2)nc(-n2c(C(F)F)nc3ccccc32)n1` [Compound A40, 4-(2-(difluoromethyl)-1H-benzo[d]imidazol-1-yl)-N-(2-methyl-1-(2-(pyridin-3-yl)phenyl)propan-2-yl)-6-morpholino-1,3,5-triazin-2-amine]: on PI3Kα, the IC50 was greater than 500 nM. On PI3Kδ, the IC50 was no more than 100 nM, the α/δ ratio result is “A’”, the β/δ ratio result is “A’” and the γ/δ ratio result is recorded as “A’”. This compound registered an IC50 against mTOR greater than 500 nM.

Take `CC(C)(Cc1ccccc1C1CCNC1)Nc1nc(N2CCOCC2)nc(-n2c(C(F)F)nc3ccccc32)n1` (stereo not drawn) [Compound A74, 4-(2-(difluoromethyl)-1H-benzo[d]imidazol-1-yl)-N-(2-methyl-1-(2-(pyrrolidin-3-yl)phenyl)propan-2-yl)-6-morpholino-1,3,5-triazin-2-amine]: the IC50 on PI3Kα was greater than 500 nM. Also, at PI3Kδ, the IC50 was no more than 100 nM, the α/δ ratio entry is “A’”, the β/δ ratio result is “C’” and the γ/δ ratio entry is given as “A’”. In addition, the IC50 on mTOR was greater than 500 nM.

Take `CC(C)(Cc1ccccc1-c1ccccc1F)Nc1nc(N2CCOCC2)nc(-n2c(C(F)F)nc3ccccc32)n1` [Compound A59, 4-(2-(difluoromethyl)-1H-benzo[d]imidazol-1-yl)-N-(1-(2′-fluorobiphenyl-2-yl)-2-methylpropan-2-yl)-6-morpholino-1,3,5-triazin-2-amine]: at PI3Kα, the IC50 is greater than 500 nM. For the same compound, at PI3Kδ, the IC50 was no more than 100 nM, the α/δ ratio entry is “A’”, the β/δ ratio entry was “A’” and the γ/δ ratio result was “A’”. On mTOR, this compound had an IC50 greater than 500 nM.

The IC50 is the concentration needed to halve the response being measured.
